Legend:
[1] = Rat toxicology studies; assay type: in vivo; conditions: compared with hydroxycarbamide (hydroxyurea)
Experimental: Importantly, the composition disclosed in U.S. Pat. No. 3,119,866 is only stable as a dry composition, after evaporation of all water. […] After this time unacceptable levels of degradation products are present in the aqueous solution. As a result, it has previously been considered that the use of pH buffers such as potassium citrate and citric acid/sodium citrate to stabilise solutions of hydroxycarbamide is not effective. At temperatures between 2° C. and 8° C., the applicant has discovered that the main degradation product of hydroxycarbamide solutions is carbamoyloxyurea. The International Conference on Harmonisation of Technical Requirements for Registration of Pharmaceuticals for Human Use (ICH) stipulates that the maximum allowable limit for any degradant in a formulation should not exceed 0.15% w/v, at therapeutic doses of hydroxycarbamide in the treatment of sickle cell disease. […] As a result, the European Medicines Agency has now accepted that carbamoyloxyurea contents of up to 0.5% w/v are acceptable.

[2] = test system: six organisms tested; experiment: Preservative efficacy study
Experimental: In parallel to this work, a preservative efficacy study was performed to investigate the effectiveness of the preservative system.

[3] = cited from earlier work

| SMILES | risk in rat toxicology studies [1] | antimicrobial activity [2] | variation of exposure for a given dosing regime ([3]; adult patients) | differences in exposure at the same mg/kg dose ([3]; paediatric patients) |
| --- | --- | --- | --- | --- |
| NC(=O)NOC(N)=O [carbamoyloxyurea] | does not pose a risk over and above hydroxycarbamide |  |  |  |
| NC(=O)NO [hydroxycarbamide, Hydroxycarbamide] |  | able to inhibit the growth of six organisms tested | approximately five-fold | two to three-fold |

— patent US12409156B2, “Stable aqueous hydroxycarbamide solution” (Nova Bio-Pharma Product Development LTD, priority 2018, dated 2025)
